Source: PMC6737077, “DFMD: Fast and Effective DelPhiForce Steered Molecular Dynamics Approach to Model Ligand Approach Toward a Receptor: Application to Spermine Synthase Enzyme” (Frontiers in Molecular Biosciences, 2019)
Residue numbers refer to the chain shown, from its start.

Tests used:
Assay in all cases: intrinsic protein fluorescence titration (ex […] nm, em […]-345 nm)
Format in all cases: binding
[1] = molecular target: T1, human spermine synthase (SpmSyn) (Homo sapiens, UniProt P52788)
T1 construct: gene SMS; wild-type human SpmSyn expression construct of Wu et al. 2008; expressed in E. coli Rosetta 2, purified; homo-dimer
T1 sequence (P52788 2-366): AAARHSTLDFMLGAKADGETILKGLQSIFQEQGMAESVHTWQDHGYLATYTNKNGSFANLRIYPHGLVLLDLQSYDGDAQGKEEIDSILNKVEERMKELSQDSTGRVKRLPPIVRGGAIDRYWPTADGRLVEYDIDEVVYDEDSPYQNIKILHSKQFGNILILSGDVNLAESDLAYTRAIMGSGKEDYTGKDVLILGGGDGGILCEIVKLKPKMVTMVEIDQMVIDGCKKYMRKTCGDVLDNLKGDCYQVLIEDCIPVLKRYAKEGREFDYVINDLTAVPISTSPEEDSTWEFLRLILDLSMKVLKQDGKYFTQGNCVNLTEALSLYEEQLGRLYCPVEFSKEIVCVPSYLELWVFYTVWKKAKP

[2] = molecular target: T2, human spermine synthase (SpmSyn) (Homo sapiens, UniProt P52788, D201A)
T2 construct: gene SMS; wild-type human SpmSyn expression construct of Wu et al. 2008; expressed in E. coli Rosetta 2, purified; homo-dimer
T2 sequence (P52788 2-366 D201A): T1 sequence (P52788 2-366) with D200A

[3] = molecular target: T3, human spermine synthase (SpmSyn) (Homo sapiens, UniProt P52788, G56S)
T3 construct: gene SMS; wild-type human SpmSyn expression construct of Wu et al. 2008; expressed in E. coli Rosetta 2, purified; homo-dimer
T3 sequence (P52788 2-366 G56S): T1 sequence (P52788 2-366) with G55S

**Q.** What does the source list for `C[S+](CC[C@H](N)C(=O)O)C[C@H]1O[C@@H](n2cnc3c(N)ncnc32)[C@H](O)[C@@H]1O` (stereo partly drawn) [AdoMet]?
**A.** Kd [1]: 272 ± 24 µM; Kd [2]: 1020 ± 69 µM; Kd [3]: 410 ± 57 µM
